Data set [1] deals with MRSA USA300. Description: Bacterial viability assay. Type of data set: cell-based, Staphylococcus aureus. Conditions: one hour in PBS, CFU, ± SEM. The method, then: (§1) Supplementary file pone.0097742.s003.doc: Table S1 Bacterial viability assays. Bacteria were grown at 37°C to mid-log phase (OD600 ∼0.4). The bacteria were diluted to approximately 10^4 to 10^5 colony forming units (CFU) per milliliter and added to a solution of phosphate buffered saline (PBS, 16 mM phosphate, 0.14 M NaCl, pH 7.2) containing the compound at varied concentrations. Samples were incubated at 37°C for one hour and then plated on Luria Bertani (LB) agar at appropriate dilutions in PBS. The plates were incubated overnight at 37°C and colonies enumerated the following day. IC50s were calculated from graphs of CFU as a function of compound concentration. Chlorhexidine was used as a positive control. […] (DOC) Click here for additional data file.
(§2) Bacterial viability assays. Bacteria were grown at 37°C to mid-log phase (OD600 ~0.4). The bacteria were diluted to approximately 10^4 to 10^5 colony forming units (CFU) per milliliter and added to a solution of phosphate buffered saline (PBS, 16 mM phosphate, 0.14 M NaCl, pH 7.2) containing the compound at varied concentrations. Samples were incubated at 37°C for one hour and then plated on Luria Bertani (LB) agar at appropriate dilutions in PBS. The plates were incubated overnight at 37°C and colonies enumerated the following day. IC50s were calculated from graphs of CFU as a function of compound concentration. Chlorhexidine was used as a positive control.

The test system of data set [2] is A. baumannii ATCC 19606. Description: Bacterial viability assay. Conditions: one hour in PBS, CFU, ± SEM. Type of data set: cell-based, Acinetobacter baumannii. The method, then:
as §1, §2

The test system of data set [3] is A. baumannii ATCC BAA1605. Description: Bacterial viability assay. Conditions: one hour in PBS, CFU, ± SEM. Type of data set: cell-based, Acinetobacter baumannii. The protocol: as §1, §2
Data set [4] deals with E. coli K91. Kind of data set: Bacterial viability assay. Type of data set: cell-based, Escherichia coli. Conditions: one hour in PBS, CFU, ± SEM. The protocol: as §1, §2
Data set [5] relates to E. faecalis V583. Kind of data set: Bacterial viability assay. It is filed as cell-based, Enterococcus faecalis. Conditions: one hour in PBS, CFU, ± SEM. The protocol:
as §1, §2

Data set [6] relates to E. faecalis MSU#10. Kind of data set: Bacterial viability assay. It is filed as cell-based, Enterococcus faecalis. Conditions: E. faecalis MSU#10; one hour in PBS, CFU; ± SEM; read-out: IC50. The protocol: as §1, §2
Data set [7] relates to HaCaT human keratinocytes. Kind of data set: Cell toxicity assay (MTS). It is filed as cell-based. Conditions: for CC50: MTS assay, concentration which killed 50% of the cells. The protocol:
The HaCaT cell line was grown in Epilife medium (MEPI500Ca) with human keratinocyte growth supplement (Invitrogen, San Diego, CA). Both types of cells were harvested using Tryspin/EDTA and diluted to 1×10^5 cells per well in a 96-well plate. Ten concentrations covering five orders of magnitude were tested with six replicates per concentration. […] MTS/PMS solution (Promega, Madison, WI) was added to the wells and absorbance was measured at 490 nm two to four hours later. Data was analyzed using GraphPad Prism version 5.0 (GraphPad Software, La Jolla, CA) using a variable slope inhibition dose response curve.

Data set [8] relates to P. aeruginosa PA01. Kind of data set: Bacterial viability assay. It is filed as cell-based, Pseudomonas aeruginosa. Conditions: one hour in PBS, CFU, ± SEM. The protocol:
as §1, §2

Data set [9] concerns MRSA strain LAC, USA300. Description: Minimum inhibitory concentration (microdilution). It is filed as cell-based, Staphylococcus aureus. Conditions: MRSA USA300; LB media; median of at least 3 determinations. The method, then: (§3) Minimum inhibitory concentration (MIC) values were determined for those compounds showing the most antibacterial activity in the bacterial viability assays (see Supplemental Materials) against each of the strains of bacteria using a microdilution method in 96 well plates with LB media according to guidelines published by the British Society for Antimicrobial Chemotherapy. Minimum bactericidal concentrations (MBC) were determined by plating 10 µL and 100 µL from each well showing no signs of growth after overnight incubation of the MIC plates and determining the minimum concentration showing a 3-log reduction of viable bacteria. MIC and MBC were also determined in cation-adjusted Mueller-Hinton broth (Hardy Diagnostics, Santa Maria, CA) for some compounds and strains.
(In general: In broth dilution the organism is exposed to a series of concentrations in liquid medium.)

Data set [10] deals with S. aureus RN4220. Kind of data set: Bacterial viability assay. It is filed as cell-based, Staphylococcus aureus. Conditions: one hour in PBS, CFU, ± SEM. The method, then: (§4) Supplementary file pone.0097742.s003.doc: Table S1 Bacterial viability assays. Bacteria were grown at 37°C to mid-log phase (OD600 ∼0.4). The bacteria were diluted to approximately 10^4 to 10^5 colony forming units (CFU) per milliliter and added to a solution of phosphate buffered saline (PBS, 16 mM phosphate, 0.14 M NaCl, pH 7.2) containing the compound at varied concentrations. Samples were incubated at 37°C for one hour and then plated on Luria Bertani (LB) agar at appropriate dilutions in PBS. The plates were incubated overnight at 37°C and colonies enumerated the following day. IC50s were calculated from graphs of CFU as a function of compound concentration. Chlorhexidine was used as a positive control. Included are those guanide (G), biguanide (BG), phenylguanide (ΦG) compounds that had some antibacterial activity in an initial screen at 30 and 100 µM, as well as their and parent amines. Compounds synthesized from 1,4-butanediamine, 1,6-hexanediamine, trisethylaminomelamine, trisbutylaminomelamine, and the dendrimer PAMAM (G0) were not active against E. coli, P aeruginosa, or S. aureus so they were not tested against the remaining bacteria (data not shown). (DOC) Click here for additional data file.
as §4, with “Bacterial” for “Supplementary file pone.0097742.s003.doc: Table S1 Bacterial”, “~0.4).” for “∼0.4).”, “μM,” for “µM,”, “shown).” for “shown). (DOC) Click here for additional data file.”

In data set [11] the test system is Acinetobacter baumannii ATCC 19606. Description: Minimum inhibitory concentration (microdilution). Type of data set: cell-based. Conditions: A. baumannii ATCC 19606; LB media; median of at least 3 determinations. The method, then:
as §3

For data set [12], the system named is Escherichia coli (strain K91). Description: Minimum inhibitory concentration (microdilution). Type of data set: cell-based. Conditions: E. coli K91; LB media; median of at least 3 determinations. The method, then:
as §3

Data set [13] relates to Enterococcus faecalis MSU#10. Kind of data set: Minimum inhibitory concentration (microdilution). Type of data set: cell-based. Conditions: E. faecalis MSU#10; LB media; median of at least 3 determinations. The protocol: as §3
Data set [14] relates to Staphylococcus aureus RN4220. Description: Minimum inhibitory concentration (microdilution). Conditions: S. aureus RN4220; LB media; median of at least 3 determinations. It is filed as cell-based. The method, then:
as §3

For data set [15], the system named is Pseudomonas aeruginosa (strain PA01). Description: Minimum inhibitory concentration (microdilution). Type of data set: cell-based. Conditions: P. aeruginosa PA01; LB media; median of at least 3 determinations. The method, then:
as §3

In data set [16] the test system is Enterococcus faecalis ATCC V583. Kind of data set: Minimum inhibitory concentration (microdilution). It is filed as cell-based. Conditions: E. faecalis V583; LB media; median of at least 3 determinations. The protocol: as §3

In brackets after ≈: the same amount, converted by molar mass.

As for `N=C(N)NCCCCCCCCNc1nc(NCCCCCCCCNC(=N)N)nc(NCCCCCCCCNC(=N)N)n1` [TOAM-3G], the 50% inhibitory concentration (IC50) in data set [1] was determined as 1500 ± 600 nM; in data set [2] it was 2600 ± 1100 nM; in [3] it was 920 ± 100 nM; in data set [4], 680 ± 40 nM; in data set [5], 23 ± 14 µM; in data set [6], 5 ± 1.9 µM. The IC50 in data set [8] came to 850 ± 190 nM; in [10], 4.7 ± 0.1 µM. The “Relative to chlorhexidine (factor by which cytotoxicity was reduced)” value in data set [7] amounted to 1.9. Also, the CC50 in data set [7] is on record as 3.6 mg/L (≈ 5.68 µM). The MIC was 1 mg/L (≈ 1.58 µM) in [9]; more than 64 mg/L in [11]; 8 mg/L (≈ 12.6 µM) in data set [12]; 16 mg/L (≈ 25.2 µM) in data set [13]; 2 mg/L (≈ 3.15 µM) in data set [14]; 16 mg/L (≈ 25.2 µM) in [15]. The molecule further registered an MIC in data set [16] of more than 64 mg/L.
For `N=C(NCCCCCCCCNc1nc(NCCCCCCCCNC(=N)Nc2ccccc2)nc(NCCCCCCCCNC(=N)Nc2ccccc2)n1)Nc1ccccc1` [TOAM-3ΦG], the IC50 in [1] came out at 240 ± 30 nM; in data set [2], 450 ± 230 nM; in data set [3], 1700 nM; in data set [4] it was 330 ± 110 nM; in data set [5], 1.7 ± 0.4 µM; in data set [6], 1.2 ± 0.1 µM. Also, the results for the IC50 in [8] and in data set [10] were 1000 ± 300 nM and 0.54 ± 0.09 µM, respectively. Moreover, the “Relative to chlorhexidine (factor by which cytotoxicity was reduced)” value in data set [7] was 1.3. The CC50 in data set [7] was found to be 2.4 mg/L (≈ 2.78 µM). For the same molecule, the MIC in data set [9] is reported as 2 mg/L (≈ 2.32 µM); in data set [11], more than 64 mg/L; in [12], 2 mg/L (≈ 2.32 µM); in [13] it was 2 mg/L (≈ 2.32 µM); in data set [14] it was 2 mg/L (≈ 2.32 µM); in data set [15], more than 64 mg/L. The molecule also had an MIC in data set [16] of 4 mg/L (≈ 4.64 µM).
On to `NCCCCCCCCNc1nc(NCCCCCCCCN)nc(NCCCCCCCCN)n1` [TOAM], for which the IC50 was 30000 nM in [1]; 3900 ± 2000 nM in data set [2]; 1300 ± 600 nM in [3]; 3900 ± 300 nM in data set [4]; more than 100 µM in [5]; 77 ± 30 µM in data set [6]. For the same molecule, the IC50 in data set [8] was more than 100000 nM; in data set [10], more than 100 µM. In [7], the “Relative to chlorhexidine (factor by which cytotoxicity was reduced)” value is reported as 2.1. Further, the CC50 in data set [7] is reported as 4.1 mg/L (≈ 8.07 µM). Further, the MIC is recorded as 48 mg/L (≈ 94.5 µM) in [9]; more than 64 mg/L in [11]; more than 64 mg/L in [12]; more than 64 mg/L in [13]; more than 64 mg/L in data set [14]; 64 mg/L (≈ 126 µM) in [15]. The same molecule displayed an MIC in [16] of more than 64 mg/L.

By IC50 is commonly meant the concentration that inhibits the measured activity by half. A word on the CC50: it is the concentration at which the toxic effect on the cells reaches its halfway point. Usually MIC stands for the least concentration at which growth counts as inhibited.

For the origin of these results see PMC4026384, “Antibacterial Activity of THAM Trisphenylguanide against Methicillin-Resistant Staphylococcus aureus” (PLoS ONE, 2014).
